Test [1] relates to 3×AD Tg mice. The test can be described thus: Probe test (platform removed, time in target quadrant). It is filed as in vivo. Conditions: 60 seconds swim, dietary supplement. The source says:
(§1) Fisetin, a natural flavonoid enriched in strawberries, is neuroprotective and can improve cognitive function in various animal models including aging mice and beta amyloid plaque accumulating transgenic mice. We have tested 0.6% DHA alone, 500 ppm fisetin alone and DHA+fisetin in combination delivered as a food supplement (in chow) to older 3×AD Tg mice with combined amyloid and tau pathology. The study ran from ˜9 months to 13-14 months of age.
FIG. 2. […] In this test the platform is removed, and the mice are allowed to swim for 60 seconds, while the time in the target quadrant is quantified.

The subject of test [2] is 3×AD Tg mice. The test is described as follows: Morris Water Maze, hidden platform, diet supplement study. Type of test: in vivo.
Excerpt: as §1

As to `O=c1c(O)c(-c2ccc(O)c(O)c2)oc2cc(O)ccc12` [fisetin, 2-(3,4-dihydroxyphenyl)-3,7-dihydroxy-4H-chromen-4-one], the “retention in the probe test (time in the target quadrant)” value with 3×AD Tg mice [1] was “also improved retention”. Also, the Cognitive deficits result with 3×AD Tg mice [2] (0.6% DHA, 500 ppm fisetin, alone or combined, in chow, older 3×AD Tg mice, ~9 to 13-14 months of age) was “not by DHA alone or fisetin alone”. In the test with 3×AD Tg mice [2] (12-13 month old 3×AD Tg mice on control bad (high safflower oil) diet), the “time (latency) to find a hidden platform with additional blocks of training” value was “no improvement”.

These data come from patent US9254280B2, “Medical food for cognitive decline” (The Regents of the University of California, priority 2011, dated 2016).
